The values below come from ChEMBL document CHEMBL1240432, “Synthesis and preliminary bioactivity assays of 3,4-dichloro-5-(omega-hydroxyalkylamino)-2(5H)-furanones” (Eur J Med Chem, 2010).

In one assay the test system is Leishmania donovani. The experiment in a line: Antiprotozoal activity against Leishmania donovani MHOM/ET/67/L82 at 4.8 ug/m after 72 hrs by fluorimetry. The class given is functional.
For assay [1], the system named is Trypanosoma brucei rhodesiense. As to the kind of experiment: Antiprotozoal activity against Trypanosoma brucei rhodesiense STIB900 at 4.8 ug/mL by microplate alamar blue assay. Type of assay: functional.
The next assay relates to Plasmodium falciparum. As to the kind of experiment: Antiprotozoal activity against Plasmodium falciparum K1 infected in human erythrocytes at 4.8 ug/m after 72 hrs by [3H]hypoxanthine incorporation. Type of assay: functional.
In assay [2] the test system is Mycobacterium tuberculosis. The experiment in a line: Antitubercular activity against Mycobacterium tuberculosis H37Rv by microplate alamar blue assay. Type of assay: functional, organism-based.
The next assay relates to Trypanosoma cruzi. The experiment in a line: Antiprotozoal activity against Trypanosoma cruzi Tulahuen C2C4 infected in rat skeletal myoblast at 4.8 ug/ml after 48 hrs. To be noted: Tulahuen C2C4, 48 h. The class given is functional.

Take `CCCCCCCCCCCCCCCCOP(=O)([O-])OCC[N+](C)(C)C` [MILTEFOSINE]: in the assay on Leishmania donovani, the “inhibition (INH)” value is recorded as 92.5%. The inhibition is the percentage by which the read-out fell short of the control. A lower inhibition goes with a weak effect. The compound `Nc1nc(N)nc(Nc2ccc([As]3SCC(CO)S3)cc2)n1` (stereo unspecified) [MELARSOPROL] registered an inhibition at 4.8 µg/mL in assay [1] of 98.2%.

On to `C[C@@H]1CC[C@H]2[C@@H](C)C(=O)O[C@@H]3O[C@@]4(C)CC[C@@H]1[C@]32OO4` [ARTEMISININ], for which the “inhibition (INH)” value in the assay on Plasmodium falciparum came to 100%. As usually defined, the IC50 is the concentration that inhibits the measured activity by half. A lower IC50 goes with inhibition by little substance. What is called IC90 is the concentration needed for an effect of 90%. A high value points to weaker potency. In assay [2], `O=C1OC(NCC(O)CO)C(Cl)=C1Cl` (stereo unspecified) displayed an IC50 of more than 100 µg/mL and an IC90 of more than 100 µg/mL. `O=C(Cn1ccnc1[N+](=O)[O-])NCc1ccccc1` [BENZNIDAZOLE] showed an inhibition at 4.8 µg/mL in the assay on Trypanosoma cruzi of 89.6%.
